Read-outs that look alike come from different tables or passages of the source.
Molecular target: T1, recombinant human GluN1/GluN2A receptor (Homo sapiens, UniProt Q05586+Q12879)
T1 construct: expressed in transfected cells; host or cells: HEK293, tetracycline-inducible expression
Test: Whole-cell patch clamp of mammalian cells (Syncropatch 384i), NMDA modulation
Assay type: cell-based
Settings: HEK293 cells, human GluN1/GluN2A, glutamate 1 μM / glycine 100 μM, -80 mV, peak amplitude increase; for EC50: read-out: EC50
Summary of the method: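 HEK293 cells with tetracycline-induced (50 ng/ml, 18–24 h) human GluN1/GluN2A, automated whole-cell recording at −80 mV, pH 7.4 external. After 120 s compound pre-incubation, compound applied with glutamate 1 μM/glycine 100 μM; fold peak increase (Icomp/Icontrol)−1 over 8 concentrations fitted four-parameter logistic.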

T1 sequence (Q12879 23-1464, other chains not shown): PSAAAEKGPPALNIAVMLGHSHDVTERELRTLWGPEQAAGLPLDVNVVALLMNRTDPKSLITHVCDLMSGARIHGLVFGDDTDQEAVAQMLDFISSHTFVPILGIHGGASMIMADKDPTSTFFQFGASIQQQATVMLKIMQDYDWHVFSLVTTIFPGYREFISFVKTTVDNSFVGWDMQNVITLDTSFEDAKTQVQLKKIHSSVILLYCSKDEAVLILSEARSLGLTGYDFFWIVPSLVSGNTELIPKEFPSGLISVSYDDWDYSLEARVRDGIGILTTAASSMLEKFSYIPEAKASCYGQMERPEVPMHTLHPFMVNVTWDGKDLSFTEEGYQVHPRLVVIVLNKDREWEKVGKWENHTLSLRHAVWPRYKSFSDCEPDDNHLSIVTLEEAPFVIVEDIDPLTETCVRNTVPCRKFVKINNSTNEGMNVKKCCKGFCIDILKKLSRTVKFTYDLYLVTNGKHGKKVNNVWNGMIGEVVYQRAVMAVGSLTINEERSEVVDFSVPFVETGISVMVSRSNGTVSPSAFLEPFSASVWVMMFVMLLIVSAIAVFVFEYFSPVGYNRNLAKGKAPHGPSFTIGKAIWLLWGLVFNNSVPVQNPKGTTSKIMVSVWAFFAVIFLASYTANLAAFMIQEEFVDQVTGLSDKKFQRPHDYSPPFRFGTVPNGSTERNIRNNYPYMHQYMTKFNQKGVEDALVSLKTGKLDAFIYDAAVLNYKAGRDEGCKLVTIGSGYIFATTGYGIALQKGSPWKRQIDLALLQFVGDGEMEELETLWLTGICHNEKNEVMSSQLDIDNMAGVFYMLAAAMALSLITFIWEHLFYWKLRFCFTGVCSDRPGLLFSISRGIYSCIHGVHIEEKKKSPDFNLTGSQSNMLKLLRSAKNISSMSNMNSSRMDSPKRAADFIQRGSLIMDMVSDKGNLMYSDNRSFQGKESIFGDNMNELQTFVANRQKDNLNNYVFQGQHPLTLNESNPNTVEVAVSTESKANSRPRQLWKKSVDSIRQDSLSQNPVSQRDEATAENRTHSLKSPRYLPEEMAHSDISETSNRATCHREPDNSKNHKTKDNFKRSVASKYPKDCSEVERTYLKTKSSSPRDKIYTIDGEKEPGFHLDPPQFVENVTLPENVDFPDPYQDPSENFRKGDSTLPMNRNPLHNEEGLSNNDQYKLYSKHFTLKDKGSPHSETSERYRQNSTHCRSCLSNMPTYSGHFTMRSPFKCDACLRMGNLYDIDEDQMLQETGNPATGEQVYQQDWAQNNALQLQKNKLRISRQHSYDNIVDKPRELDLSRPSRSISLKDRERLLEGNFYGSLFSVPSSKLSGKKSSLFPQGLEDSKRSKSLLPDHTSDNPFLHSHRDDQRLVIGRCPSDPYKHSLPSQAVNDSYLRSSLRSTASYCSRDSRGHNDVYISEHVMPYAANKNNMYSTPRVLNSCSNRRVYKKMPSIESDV

CC[C@]1(O)CC[C@]2(C)C3=CC[C@]4(C)[C@@H]([C@H](C)CC[C@@](C)(O)C(F)(F)F)CC[C@H]4[C@@H]3CC[C@H]2C1 [Compound E-2, (3S,5S,8S,10S,13R,14S,17R)-3-ethyl-10,13-dimethyl-17-((2R,5R)-6,6,6-trifluoro-5-hydroxy-5-methylhexan-2-yl)-2,3,4,5,6,7,8,10,12,13,14,15,16,17-tetradecahydro-1H-cyclopenta[a]phenanthren-3-ol] gave an Emax (Table E-2) of over 200% and an EC50 (Table E-2) of 100 to 500 nM.
Work on C[C@H](CC[C@@H](O)C1(C#N)CCC1)[C@H]1CC[C@H]2[C@@H]3CC[C@H]4C[C@@](C)(O)CC[C@]4(C)C3=CC[C@]12C [Compound C-31, 1-((1R,4R)-1-hydroxy-4-((3S,5S,8S,10S,13R,14S,17R)-3-hydroxy-3,10,13-trimethyl-2,3,4,5,6,7,8,10,12,13,14,15,16,17-tetradecahydro-1H-cyclopenta[a]phenanthren-17-yl)pentyl)cyclobutane-1-carbonitrile] yielded an EC50 (Table C-2) of 1 to 100 nM and an EC50 (Table E-2) of 1 to 100 nM.
CC[C@]1(O)CC[C@]2(C)C3=CC[C@]4(C)[C@@H]([C@H](C)CC[C@](C)(O)C(F)(F)F)CC[C@H]4[C@@H]3CC[C@H]2C1 [Compound E-3, (3S,5S,8S,10S,13R,14S,17R)-3-ethyl-10,13-dimethyl-17-((2R,5S)-6,6,6-trifluoro-5-hydroxy-5-methylhexan-2-yl)-2,3,4,5,6,7,8,10,12,13,14,15,16,17-tetradecahydro-1H-cyclopenta[a]phenanthren-3-ol] was tested, and the Emax (Table E-2) was over 200% and the EC50 (Table E-2) was 1 to 100 nM.
CC[C@]1(O)CC[C@@]2(C)[C@@H](CC[C@H]3[C@@H]4[C@@H](C)C[C@H]([C@H](C)CCCC(C)(C)O)[C@@]4(C)CC[C@@H]32)C1 [Compound B-12, (3S,5S,8R,9S,10S,13R,14S,15S,17R)-3-ethyl-17-((R)-6-hydroxy-6-methylheptan-2-yl)-10,13,15-trimethylhexadecahydro-1H-cyclopenta[a]phenanthren-3-ol] showed an Emax (Table B-2) of 100 to 200% and an EC50 (Table B-2) of 1 to 100 nM.
CC[C@]1(O)CC[C@]2(C)C3=CC[C@]4(C)[C@@H]([C@H](C)CC[C@H](O)C5(C#N)CC5)CC[C@H]4[C@@H]3CC[C@H]2C1 [Compound C-26, 1-((1S,4R)-4-((3S,5S,8S,10S,13R,14S,17R)-3-ethyl-3-hydroxy-10,13-dimethyl-2,3,4,5,6,7,8,10,12,13,14,15,16,17-tetradecahydro-1H-cyclopenta[a]phenanthren-17-yl)-1-hydroxypentyl)cyclopropane-1-carbonitrile] gave an EC50 (Table C-2) of 1 to 100 nM and an EC50 (Table E-2) of 1 to 100 nM.
Work on C[C@H](CC[C@](C)(O)C(F)(F)F)[C@H]1CCC[C@H]2[C@@H]3CC=C4C[C@@](C)(O)CC[C@]4(C)[C@H]3CC[C@]12C [Compound H-1, (2S,4aR,4bS,6aR,7R,10aS,10bS)-2,4a,6a-trimethyl-7-((2R,5S)-6,6,6-trifluoro-5-hydroxy-5-methylhexan-2-yl)-1,2,3,4,4a,4b,5,6,6a,7,8,9,10,10a,10b,11-hexadecahydrochrysen-2-ol] yielded an Emax (Table H-2) of 100 to 200% and an EC50 (Table H-2) of 500 to 1000 nM.
CC[C@]1(O)CC[C@@]2(C)[C@@H](CC[C@@H]3[C@@H]2CC[C@]2(C)[C@@H]([C@H](F)CC[C@H](O)C(C)C)CC[C@@H]32)C1 [Compound A-4, (3S,5S,8R,9S,10S,13S,14S,17S)-3-ethyl-17-((1R,4S)-1-fluoro-4-hydroxy-5-methylhexyl)-10,13-dimethylhexadecahydro-1H-cyclopenta[a]phenanthren-3-ol] was tested, and the Emax (Table A-2) was over 200% and the EC50 (Table A-2) was 1 to 100 nM.
CC[C@]1(O)CC[C@@]2(C)[C@@H](CC[C@@H]3[C@@H]2CC[C@]2(C)[C@@H]([C@H](C#N)CCCC(C)(C)O)CC[C@@H]32)C1 [Compound A-9, (R)-2-((3S,5S,8R,9S,10S,13S,14S,17R)-3-ethyl-3-hydroxy-10,13-dimethylhexadecahydro-1H-cyclopenta[a]phenanthren-17-yl)-6-hydroxy-6-methylheptanenitrile] was tested, and the Emax (Table A-2) was over 200% and the EC50 (Table A-2) was 1 to 100 nM.
CC[C@]1(O)CC[C@@]2(C)C(=CC[C@H]3[C@@H]4CCC[C@H]([C@H](C)CC[C@@H](O)C(C)C)[C@@]4(C)CC[C@@H]32)C1 [Compound H-6, (2S,4aR,4bS,6aR,7R,10aS,10bS)-2-ethyl-7-((2R,5R)-5-hydroxy-6-methylheptan-2-yl)-4a,6a-dimethyl-1,2,3,4,4a,4b,5,6,6a,7,8,9,10,10a,10b,11-hexadecahydrochrysen-2-ol] showed an Emax (Table H-2) of under 100% and an EC50 (Table H-2) of 1 to 100 nM.

Reference: patent publication US20240368214A1, “POSITIVE NMDA-MODULATING COMPOUNDS AND METHODS OF USE THEREOF” (SAGE THERAPEUTICS, INC., priority 2021, published 2024)
